Experiments:
[1] = test system: Microfilaria of Dirofilaria immitis; test: Motility of Dirofilaria immitis microfilariae in microtiter plate, 3 days, dose response; type: cell-based; details: 72 h, read-out: EC50, motility of D. immitis microfilaria, three days at 37° C., 5% CO2, vs DMSO control
[2] = test system: L4 stage larvae of Dirofilaria immitis; test: Motility of L4 stage Dirofilaria immitis larvae, 3 days, dose response; type: cell-based; details: 72 h, read-out: EC50, motility of L4 stage D. immitis, three days at 37° C., 5% CO2, vs DMSO control
[3] = test system: Haemonchus contortus L1 larvae; test: Haemonchus contortus larval development L1 to L3, 4 days, dose response; details: 96 h, read-out: EC50, development of H. contortus larvae from L1 to L3
From the text: Biological Example 2: Screening Method to Test Activity of Compounds Against Haemonchus contortus

CC(C)(C)c1c(C(=O)N[C@H]2CCOc3ccccc32)cnn2c(-c3cc(F)cc(F)c3F)c(Cl)cc12 [Compound A486]
EC50 [1]: < 10 nM
EC50 [2]: < 10 nM
EC50 [3]: < 10 nM

CN(C)c1c(C(=O)N[C@H]2CCOc3ccccc32)cnn2c(-c3cc(Cl)cc(Cl)c3)c(Cl)cc12 [Compound A475]
EC50 [1]: 100 to 1000 nM
EC50 [3]: 10 to 100 nM

CC(C)c1c(C(=O)N[C@H]2CCOc3ccccc32)cnn2c(-c3cc(Cl)cc(Cl)c3)c(F)cc12 [Compound A466]
EC50 [1]: 10 to 100 nM
EC50 [2]: 10 to 100 nM
EC50 [3]: 100 to 1000 nM

CC(C)c1c(C(=O)N[C@H]2CCOc3ccccc32)cnn2c(-c3cc(Cl)cc(Cl)c3)ccc12 [Compound A470]
EC50 [1]: 1000 to 10000 nM

CC(C)c1c(C(=S)N[C@H]2CCOc3ccccc32)cnn2c(-c3cc(F)cc(Cl)c3Cl)c(Cl)cc12 [Compound A539, 6-chloro-7-(2,3-dichloro-5-fluorophenyl)-N-[(4S)-3,4-dihydro-2H-1-benzopyran-4-yl]-4-(propan-2-yl)pyrrolo[1,2-b]pyridazine-3-carbothioamide]
EC50 [1]: 10 to 100 nM
EC50 [2]: 100 to 1000 nM

CC(C)c1c(C(=O)N[C@H]2CCOc3ccccc32)cnn2c(-c3cc(F)cc(Cl)c3Cl)c(Cl)cc12 [Compound A523, 6-chloro-7-(2,3-dichloro-5-fluorophenyl)-N-[(4S)-3,4-dihydro-2H-1-benzopyran-4-yl]-4-(propan-2-yl)pyrrolo[1,2-b]pyridazine-3-carboxamide]
EC50 [1]: < 10 nM
EC50 [2]: < 10 nM
EC50 [3]: < 10 nM

Cc1cc2c(C(C)(C)C)c(C(=O)N[C@H]3CCc4sc(Br)nc43)cnn2c1-c1cc(F)cc(Cl)c1Cl [Compound A536a]
EC50 [1]: < 10 nM
EC50 [2]: 10 to 100 nM
EC50 [3]: 10 to 100 nM

Cc1cc2c(N3CCOCC3)c(C(=O)N[C@H]3CCOc4ccccc43)cnn2c1-c1cc(F)cc(Cl)c1Cl [Compound A490]
EC50 [1]: < 10 nM
EC50 [2]: < 10 nM

Cc1cc2c(C(C)C)c(C(=O)NN3CCOc4ccccc43)cnn2c1-c1cc(F)cc(Cl)c1Cl [Compound A498]
EC50 [1]: < 10 nM
EC50 [2]: < 10 nM
EC50 [3]: 10 to 100 nM

Cc1cc2c(C(C)(C)C)c(C(=O)N[C@H]3CCOc4ccccc43)cnn2c1-c1cc(F)cc(F)c1F [Compound A471]
EC50 [1]: < 10 nM
EC50 [2]: < 10 nM
EC50 [3]: < 10 nM

Cc1cc2c(C(C)(C)C)c(C(=O)N[C@H]3CCOc4ccccc43)cnn2c1N1C[C@H](C)C[C@H](C)C1 [Compound A528]
EC50 [1]: 10 to 100 nM
EC50 [2]: 10 to 100 nM
EC50 [3]: 100 to 1000 nM

CC(C)c1c(C(=O)N[C@H]2CCOc3ccccc32)cnn2c(-c3cc(Cl)cc(Cl)c3)cc(C(F)(F)F)c12 [Compound A468]
EC50 [1]: 1000 to 10000 nM

Cc1cc2c(C(C)(C)C)c(C(=O)N[C@H]3CCOc4ncsc43)cnn2c1-c1cc(F)cc(Cl)c1Cl [Compound A551]
EC50 [1]: 10 to 100 nM
EC50 [2]: 10 to 100 nM
EC50 [3]: 10 to 100 nM

Cc1cc2c(N3CC(F)(F)C3)c(C(=O)N[C@H]3CCOc4ccccc43)cnn2c1-c1cc(Cl)cc(Cl)c1Cl [Compound A505]
EC50 [1]: < 10 nM
EC50 [2]: < 10 nM
EC50 [3]: 10 to 100 nM

Cc1cc2c(C(C)C)c(C(=O)Nc3cccc4ccccc34)cnn2c1-c1cc(Cl)cc(Cl)c1 [Compound A521]
EC50 [2]: 100 to 1000 nM

CC(C)c1c(C(=O)N[C@H]2CCOc3ccccc32)cnn2c(-c3cc(Cl)cc(Cl)c3)cc(Cl)c12 [Compound A467]
EC50 [1]: 100 to 1000 nM
EC50 [2]: 100 to 1000 nM

Cc1cc2c(C(C)(C)C)c(C(=O)N[C@H]3CCOc4ccc(F)cc43)cnn2c1-c1cc(F)cc(Cl)c1Cl [Compound A488]
EC50 [1]: < 10 nM
EC50 [2]: 10 to 100 nM
EC50 [3]: 10 to 100 nM

O=C(N[C@H]1CCOc2ccccc21)c1cnn2c(-c3cc(F)cc(Cl)c3Cl)c(Cl)cc2c1N1CCC1 [Compound A503]
EC50 [1]: < 10 nM
EC50 [2]: < 10 nM
EC50 [3]: 10 to 100 nM

Cc1cc2c(N3CC(C)(F)C3)c(C(=O)N[C@H]3CCOc4ccccc43)cnn2c1-c1cc(Cl)cc(Cl)c1Cl [Compound A508]
EC50 [1]: 1000 to 10000 nM

CC(C)(C)c1c(C(=O)N[C@H]2CCOc3ccccc32)cnn2c(-c3c(F)cc(F)cc3F)c(Cl)cc12 [Compound A484]
EC50 [1]: < 10 nM
EC50 [2]: < 10 nM
EC50 [3]: < 10 nM

CN(C)c1c(C(=O)N[C@H]2CCOc3ccccc32)cnn2c(-c3cc(Cl)cc(Cl)c3Cl)c(Cl)cc12 [Compound A473]
EC50 [1]: 10 to 100 nM
EC50 [2]: < 10 nM
EC50 [3]: < 10 nM

CC1(C)CN(c2c(C(=O)N[C@H]3CCOc4ccccc43)cnn3c(-c4cc(Cl)cc(Cl)c4Cl)c(Cl)cc23)C1 [Compound A515]
EC50 [3]: 1000 to 10000 nM

Cc1cc2c(C(C)(C)C)c(C(=O)N[C@H]3CCc4sccc43)cnn2c1-c1cc(F)cc(Cl)c1Cl [Compound A553]
EC50 [1]: < 10 nM
EC50 [2]: < 10 nM
EC50 [3]: < 10 nM

Cc1cc2c(C(C)(C)C)c(C(=O)N[C@H]3CC4(CCCC4)Oc4ccccc43)cnn2c1-c1cc(F)cc(Cl)c1Cl [Compound A548]
EC50 [1]: 1000 to 10000 nM
EC50 [2]: 1000 to 10000 nM

Cc1cc2c(C(C)(C)C)c(C(=O)N[C@H]3CCOc4ccccc43)cnn2c1-c1cc(Cl)cc(Cl)c1Cl [Compound A472]
EC50 [1]: < 10 nM
EC50 [3]: < 10 nM

Cc1cc2c(C(C)(C)C)c(C(=O)NC3CCCc4ncsc43)cnn2c1-c1cc(F)cc(Cl)c1Cl (centres unmarked) [Compound A533]
EC50 [1]: 10 to 100 nM
EC50 [2]: 100 to 1000 nM
EC50 [3]: 100 to 1000 nM

Cc1cc2c(C(C)(C)C)c(C(=O)N[C@H]3CCOc4ccccc43)cnn2c1-c1cc(Cl)cc(Cl)c1 [Compound A464]
EC50 [1]: < 10 nM
EC50 [2]: < 10 nM

Cc1cc2c(N3CC(C)(C)C3)c(C(=O)N[C@H]3CCOc4ccccc43)cnn2c1-c1cc(F)cc(Cl)c1Cl [Compound A512]
EC50 [3]: 1000 to 10000 nM

Cc1cc2c(N3CCOCC3)c(C(=O)N[C@H]3CCOc4ccccc43)cnn2c1-c1cc(F)cc(F)c1F [Compound A491]
EC50 [1]: < 10 nM
EC50 [2]: < 10 nM

Cc1cc2c(C(C)(C)C)c(C(=O)N[C@@H]3CCc4sc(Br)nc43)cnn2c1-c1cc(F)cc(Cl)c1Cl [Compound A536b]
EC50 [1]: 1000 to 10000 nM
EC50 [2]: 1000 to 10000 nM

Cc1cc2c(C(C)(C)C)c(C(=O)N[C@H]3CCOc4ccccc43)cnn2c1N1CCOCC1 [Compound A529]
EC50 [1]: 1000 to 10000 nM
EC50 [2]: 100 to 1000 nM

Cc1cc2c(C(C)(C)C)c(C(=O)N[C@H]3CC(C)(C)Oc4ccccc43)cnn2c1-c1cc(F)cc(Cl)c1Cl [Compound A547]
EC50 [1]: 1000 to 10000 nM
EC50 [2]: 1000 to 10000 nM

Cc1cc2c(N3CC(C)(F)C3)c(C(=O)N[C@H]3CCOc4ccccc43)cnn2c1-c1cc(F)cc(Cl)c1Cl [Compound A562]
EC50 [1]: 1000 to 10000 nM
EC50 [2]: 1000 to 10000 nM

Cc1cc2c(C(C)(C)C)c(C(=O)N[C@H]3CCc4ccccc43)cnn2c1-c1cc(Cl)cc(Cl)c1 [Compound A480]
EC50 [1]: 1000 to 10000 nM
EC50 [2]: 100 to 1000 nM

Cc1cc2c(C(C)(C)C)c(C(=O)N[C@H]3CCCc4cc(F)ccc43)cnn2c1-c1cc(F)cc(Cl)c1Cl [Compound A538]
EC50 [1]: 1000 to 10000 nM
EC50 [2]: 1000 to 10000 nM

Cc1cc2c(C(C)(C)C)c(C(=O)N[C@H]3CCOc4ccccc43)cnn2c1-c1cccc(Cl)c1Cl [Compound A519]
EC50 [1]: < 10 nM
EC50 [2]: < 10 nM

Cc1cc2c(C(C)(C)C)c(C(=O)N(C)[C@H]3CCOc4ccccc43)cnn2c1-c1cc(F)cc(Cl)c1Cl [Compound A543, 4-tert-butyl-7-(2,3-dichloro-5-fluorophenyl)-N-[(4S)-3,4-dihydro-2H-1-benzopyran-4-yl]-N,6-dimethylpyrrolo[1,2-b]pyridazine-3-carboxamide]
EC50 [1]: 1000 to 10000 nM
EC50 [2]: 1000 to 10000 nM

Cc1cc2c(C(C)C)c(C(=O)N[C@H]3CCOc4ccccc43)cnn2c1-c1cc(F)cc(Cl)c1Cl [Compound A489]
EC50 [1]: < 10 nM
EC50 [2]: < 10 nM

Cc1cc2c(C(C)(C)C)c(C(=O)N[C@H]3CCOc4ccncc43)cnn2c1-c1cc(F)cc(Cl)c1Cl [Compound A569]
EC50 [1]: < 10 nM

Cc1cc2c(N3CC(C)(C)C3)c(C(=O)N[C@H]3CCOc4ccccc43)cnn2c1-c1cc(F)cc(Cl)c1Cl [Compound A564]
EC50 [1]: 1000 to 10000 nM
EC50 [2]: 1000 to 10000 nM

Cc1cc2c(C(C)C)c(C(=O)NN3CCOc4ccccc43)cnn2c1-c1cc(Cl)cc(Cl)c1 [Compound A497]
EC50 [1]: 10 to 100 nM
EC50 [3]: 10 to 100 nM

Cc1cc2c(N(C)C)c(C(=O)N[C@H]3CCOc4ccccc43)cnn2c1-c1cc(Cl)cc(Cl)c1Cl [Compound A568]
EC50 [1]: < 10 nM
EC50 [3]: < 10 nM

Cc1cc2c(C(C)(C)C)c(C(=O)N[C@H]3CCn4cncc43)cnn2c1-c1cc(F)cc(Cl)c1Cl [Compound A552]
EC50 [1]: 1000 to 10000 nM
EC50 [2]: 1000 to 10000 nM

Cc1cc2c(C(C)(C)C)c(C(=O)NC3CCCc4sccc43)cnn2c1-c1cc(F)cc(Cl)c1Cl (centres unmarked) [Compound A537]
EC50 [1]: < 10 nM
EC50 [2]: 10 to 100 nM

Cc1cc2c(C(C)(C)C)c(NC(=O)NC3CCCc4ncsc43)cnn2c1-c1cc(F)cc(Cl)c1Cl (centres unmarked) [Compound A535]
EC50 [3]: 1000 to 10000 nM

Cc1cc(-c2cc(Cl)cc(Cl)c2)n2ncc(C(=O)N[C@H]3CCOc4ccccc43)c(C(C)C)c12 [Compound A469]
EC50 [1]: 10 to 100 nM
EC50 [2]: 10 to 100 nM

CC1(F)CN(c2c(C(=O)N[C@H]3CCOc4ccccc43)cnn3c(-c4cc(Cl)cc(Cl)c4Cl)c(Cl)cc23)C1 [Compound A509]
EC50 [1]: 100 to 1000 nM

CC(C)(C)c1c(C(=O)N[C@H]2CCc3ccccc32)cnn2c(-c3cc(Cl)cc(Cl)c3)c(Cl)cc12 [Compound A492]
EC50 [1]: 10 to 100 nM
EC50 [3]: 100 to 1000 nM

CC1(F)CN(c2c(C(=O)N[C@H]3CCOc4ccccc43)cnn3c(-c4cc(F)cc(Cl)c4Cl)c(Cl)cc23)C1 [Compound A514]
EC50 [1]: 1000 to 10000 nM

Cc1cc2c(C(C)(C)C)c(C(=O)N[C@H]3CCc4cnccc43)cnn2c1-c1cc(F)cc(Cl)c1Cl [Compound A556]
EC50 [1]: 1000 to 10000 nM
EC50 [2]: 1000 to 10000 nM

Cc1cc2c(C(C)(C)C)c(C(=O)N[C@H]3COc4ccccc43)cnn2c1-c1cc(F)cc(Cl)c1Cl [Compound A545]
EC50 [2]: 1000 to 10000 nM

Cc1cc2c(C(C)(C)C)c(C(=O)N[C@H]3CCCc4cnn(C(C)C)c43)cnn2c1-c1cc(F)cc(Cl)c1Cl [Compound A546]
EC50 [2]: 1000 to 10000 nM
